# Results reported in ChEMBL document CHEMBL1151013, “The chemical evolution of N,N-dimethyl-2-[5-(1,2,4-triazol-4-yl)-1H-indol-3-yl]ethylamine (L-741,604) and analogues: Potent and selective agonists for 5-HT1D receptors” (Bioorg Med Chem Lett, 1996).
# Legend:
# [1] = species on record: Oryctolagus cuniculus; assay: Compound was tested for agonist potency from plots of percentage 5-HT (1 uM) response against concentration of the agonist in white rabbit saphenous vein; assay type: functional, organism-based
# [2] = Maximum concentration in rat plasma was determined; assay type: ADME, organism-based
# [3] = species on record: Rattus norvegicus; assay: Maximum fall in carotid flow in rat; assay type: organism-based; details: in vivo
# [4] = Plasma clearance in rat was determined; assay type: ADME, organism-based; details: read-out: Clp
# [5] = Time required to reach maximum concentration in rat plasma; assay type: ADME, organism-based
# [6] = Half-life in rat plasma was determined; assay type: ADME, organism-based
# [7] = species on record: Canis familiaris; assay: The plasma concentration producing half maximal fall in carotid flow in dogs; assay type: functional, organism-based; details: Canis lupus familiaris
# [8] = species on record: Rattus norvegicus; assay: Inhibition of extravation produced in the dura meter by electrical stimulatio of trigeminal ganglion in rat; assay type: functional, organism-based
Compound,EC50 [1] [nM],Cmax [2] [ng/mL],Carotid Flow Decrease [3] [%],clearance [4] [mL/min/kg],Tmax [5] [h],half-life [6] [h],IC50 [7] [nM],IC50 [8] [nM]
CN(C)CCc1c[nH]c2ccc(-n3cncn3)cc12,62,,,,,,,
CNS(=O)(=O)Cc1ccc2[nH]cc(CCN(C)C)c2c1,,74,44,69,4,1.1,48.6,
CN1CCC(c2c[nH]c3ccc(-n4cnnc4)cc23)CC1,39,53,20,48,3,2,6.9,69
CN(C)CCc1c[nH]c2ccc(Cn3cncn3)cc12 [RIZATRIPTAN],,271,76,79,0.75,0.8,,
CN(C)CCc1c[nH]c2ccc(-n3cnnc3)cc12,32,83,27,37,1,1.3,,13
